{
  "source": "paper PMC4919643",
  "about": "“Intestinally-targeted TGR5 agonists equipped with quaternary ammonium have an improved hypoglycemic effect and reduced gallbladder filling effect” (Scientific Reports, 2016)",
  "key": {"[1]": {"assay": "Solubility in water determined by LC-MS/MS", "assay_type": "physicochemical"}, "[2]": {"assay": "Pharmacokinetics assay of 26a in ob/ob mice (plasma and intestinal tissue)", "assay_type": "in vivo, mouse", "description": "The blood and intestinal tissue samples were collected before dosing or 2, 4, 6, 10, 16, and 24 h after dosing. Density of intestinal tissue was taken as 1 g/ml. Error bar indicates SEM. […]\nPharmacokinetics assay of 26a in ob/ob mice. […]\nadministered to 12 h-fasted ob/ob mice (n = 3 per time point). Blood and intestinal tissue samples were collected before dosing or 2 h, 4 h, 6 h, 10 h 16 h, 24 h after dosing. Blood samples were centrifuged at 11000 rpm for 5 min to isolate the plasma. 25 μL of the sample was mixed with 75 μL MeOH. After centrifugation at 11000 rpm for 5 mins, the supernatant was analyzed by LC-MS/MS.\nThe tissues were ground and homogenated with 0.9% NaCl solution (1:4, w/v), and then the homogenates were centrifuged at 12,000 rpm for 10 min at 4 °C. The supernatant was collected, and 100 μL aliquot of supernatant was spiked with 300 μL methanol, and then treated as the same fashion as plasma sample. […]"}, "[3]": {"system": "ob/ob mice", "assay": "Acute efficacy (blood glucose) in ob/ob mice", "assay_type": "in vivo, mouse", "settings": "100 mg/kg p.o. single dose", "description": "Mice were refed at 6 h after dosing. *p < 0.05, **p < 0.01 vs. control. Error bar indicates SEM.\nAcute efficacy in ob/ob mice. 7-week-old ob/ob mice (male) were divided into three groups (n = 8) based on 2 h-fasted blood glucose. […]\nmg/kg) and 0.25% CMC (control) was then orally administered to 2 h-fasted mice, and blood glucose was measured at 2, 4, 6, 8, 10, and 24 h after dosing. The animals were refed at 6 h after dosing.\nGLP-1 secretion in ob/ob mice. The ob/ob mice (female) were divided into 4 groups and […]\nthen divided into 3 subgroup of different time point (n = 8-9 each subgroup). All the animals were fasted for 6 hours before collecting blood samples at the indicated time points. At other times, animals were free accessed to water and food. […] Concentrations of active GLP-1[7-36 amide] in the serum were measured using ELISA kit from Linco Research. […]\nadministered to 12 h-fasted ob/ob mice (n = 3 per time point). […] After centrifugation at 11000 rpm for 5 mins, the supernatant was analyzed by LC-MS/MS. […]\nadministered orally to overnight-fasted ob/ob mice (male, n = 3-6). 1 h after dosing, mice were refed for 3 hours, and then gallbladders were removed, and the area was measured using vernier caliper. The relative gallbladder area was calculated from the length multiplied by the width of the gallbladder. The bile weight was measured using […]"}, "[4]": {"assay": "Drug levels in plasma, bile and gallbladder tissue after 3 days oral administration to ob/ob mice", "assay_type": "in vivo", "settings": "male, mouse, after the 3-day gallbladder filling assay, 100 mg/kg p.o.", "description": "Drug levels test in plasma, bile, and gallbladder tissue after 3 days oral administration to ob/ob mice. Plasma, bile, and gallbladder were taken from experiments performed in accordance with the guidelines for the use of experimental animals in the Shanghai Laboratory Animal Administration (Shanghai, China) after three days treatment of 26a to ob/ob mice. Blood samples were collected through cardiac puncture into heparinized tubes, and plasma was harvested by centrifugation. Bile and gallbladder tissue were collected from each mouse after blood withdrawal. To 10 mg of gallbladder was added 100 μL of MeOH, and the mixture was homogenized. A 15 μL aliquot of bile samples was diluted with 100 μL of MeOH and then mixed. Plasma, bile, and tissue homogenate were stored at −20 °C. These samples were protein precipitated with MeCN using clopidogrel as the internal standard, and the supernatant was injected onto a LC-MS/MS system for the quantification of 26a. Chromatographic separation was […]\n0.5 mL min−1 using ternary mobile phase: A (H2O with 5 mM ammonium acetate and 0.5% TFA); B(MeCN: H2O = 95:5 with 0.1% TFA ); C (MeOH with 1% TFA). The MS/MS detection was carried out in MRM mode using a positive electrospray ionization […]\nLong-term study of 26a in ob/ob mice. Three groups of ob/ob mice (male) was orally […]\nAt day 0 (before dosing), 4, 8, 12 and 18, non-fasted blood glucose was measured before dosing. Mice were fasted for 6 h after dosing and then fasted blood glucose was measured.\nThe serum level of HbA1c was measured at day 0 (before dosing) and 18 by Adicon biochemical analyzer. The body weight of each mouse was recorded every day. The triglyceride and total cholesterol level was measured after the final dose.\nStatistical analysis. All data were expressed as the mean ± SEM or mean ± SD. For the experiment including multiple time points, one-way ANOVA statistical analysis was used; otherwise, unpaired Student’s t test was used. P < 0.05 was considered to be statistically significant."}, "[5]": {"system": "ob/ob mice", "assay": "Long-term (18-day) study in ob/ob mice", "assay_type": "in vivo, mouse", "settings": "for decrease of HbA1c level on day 18: 18 days; for HbA1c, signed change vs control (Fig. 9C): day 18"}, "[6]": {"target": "T1, farnesyl X receptor (FXR) (Homo sapiens, UniProt Q96RI1)", "T1 sequence (Q96RI1 262-486 limits assumed)": "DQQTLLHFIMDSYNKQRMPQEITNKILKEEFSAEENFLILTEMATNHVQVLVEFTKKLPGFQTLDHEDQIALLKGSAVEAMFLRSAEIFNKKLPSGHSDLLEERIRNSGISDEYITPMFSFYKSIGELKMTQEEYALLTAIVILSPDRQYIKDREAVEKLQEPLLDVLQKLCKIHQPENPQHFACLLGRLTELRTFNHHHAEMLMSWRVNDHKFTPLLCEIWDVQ", "assay": "FXR assay (LanthaScreen TR-FRET coactivator assay)"}, "[7]": {"settings": "100 mg/kg p.o., after 18-day treatment"}, "[8]": {"settings": "18-day treatment, 50 or 100 mg/kg p.o., dose-dependent"}, "[9]": {"settings": "18-day treatment, data not shown"}},
  "note": "Like-named read-outs stand apart in the source and are kept apart here.",
  "data": [
    {"compound": "CN(CC[N+](C)(C)C)C(=O)CCc1cc(Cl)c(Oc2ccsc2C(=O)N2CCN(C3CC3)c3ccccc32)cc1Cl", "note": "[Compound 26a]", "values": [
      {"measurement": "solubility", "setting": "[1]", "result": 1800, "unit": "µg/mL"},
      {"measurement": "time of Cmax in intestinal tissue", "setting": "[2]; 100 mg/kg p.o. single dose", "result": 2, "unit": "h"},
      {"measurement": "time of Cmax in plasma", "setting": "[2]; 100 mg/kg p.o. single dose", "result": 2, "unit": "h"},
      {"measurement": "Cmax", "setting": "[2]; male, mouse, colon, po, 100 mg/kg p.o., at 2 h, tissue density taken as 1 g/ml, read-out: Cmax in colon tissue", "result": 27000, "unit": "ng/mL"},
      {"measurement": "Cmax", "setting": "[2]; male, mouse, duodenum, po, 100 mg/kg p.o., at 2 h, tissue density taken as 1 g/ml, read-out: Cmax in duodenum tissue", "result": 136000, "unit": "ng/mL"},
      {"measurement": "Cmax", "setting": "[2]; male, mouse, ileum, po, 100 mg/kg p.o., at 2 h, tissue density taken as 1 g/ml, read-out: Cmax in ileum tissue", "result": 331000, "unit": "ng/mL"},
      {"measurement": "concentration at 24 h", "setting": "[2]; male, mouse, intestinal tissue, po, 100 mg/kg p.o. single dose, read-out: level in intestinal tissue at 24 h", "result": "> 800", "unit": "ng/mL"},
      {"measurement": "Cmax", "setting": "[2]; male, mouse, jejunum, po, 100 mg/kg p.o., at 2 h, tissue density taken as 1 g/ml, read-out: Cmax in jejunum tissue", "result": 92000, "unit": "ng/mL"},
      {"measurement": "Cmax", "setting": "[2]; male, mouse, plasma, po, 100 mg/kg p.o. single dose, read-out: Cmax in plasma", "result": 71, "unit": "ng/mL"},
      {"measurement": "concentration at 10 h", "setting": "[2]; male, mouse, plasma, po, 100 mg/kg p.o. single dose, read-out: drug concentration in plasma after 10 h", "result": "< 10", "unit": "ng/mL"},
      {"measurement": "time post-dosing until which glucose-lowering effect was maintained", "setting": "[3]", "result": "at least 24 h"},
      {"measurement": "concentration at 3 days", "setting": "[4]; read-out: concentration in gallbladder", "result": "112 ± 30", "unit": "ng/mL"},
      {"measurement": "concentration at 3 days", "setting": "[4]; bile, read-out: concentration in bile", "result": "7800 ± 1850", "unit": "ng/mL"},
      {"measurement": "concentration at 3 days", "setting": "[4]; plasma, read-out: concentration in plasma", "result": "18 ± 3", "unit": "ng/mL"},
      {"measurement": "decrease of HbA1c level on day 18", "setting": "[5]; 50 mg/kg p.o., not significant", "result": 0.48, "unit": "%"},
      {"measurement": "triglyceride, signed change vs control (Fig. 9D)", "setting": "[5]; 50 mg/kg p.o., after 18-day treatment", "result": -7.2, "unit": "%"},
      {"measurement": "HbA1c, signed change vs control (Fig. 9C)", "setting": "[5]; 50 mg/kg p.o.", "result": -0.48, "unit": "%"},
      {"measurement": "decrease of HbA1c level on day 18", "setting": "[5]; 100 mg/kg p.o., significant", "result": 0.94, "unit": "%"},
      {"measurement": "decrease of triglyceride level", "setting": "[5]; [7]", "result": 22, "unit": "%"},
      {"measurement": "triglyceride, signed change vs control (Fig. 9D)", "setting": "[5]; [7]", "result": -22, "unit": "%"},
      {"measurement": "HbA1c, signed change vs control (Fig. 9C)", "setting": "[5]; 100 mg/kg p.o.", "result": -0.94, "unit": "%"},
      {"measurement": "body weight of mice", "setting": "[5]; 18-day treatment", "result": "not affected"},
      {"measurement": "significant change in levels of total cholesterol", "setting": "[5]; 18-day treatment, 50 or 100 mg/kg p.o.", "result": "not observed"},
      {"measurement": "fasting blood glucose", "setting": "[5]; [8]", "result": "decreased dramatically"},
      {"measurement": "non-fasting blood glucose", "setting": "[5]; [8]", "result": "decreased dramatically"},
      {"measurement": "level of alanine aminotransferase", "setting": "[5]; [9]", "result": "No significant changes"},
      {"measurement": "level of alkaline phosphatase", "setting": "[5]; [9]", "result": "No significant changes"},
      {"measurement": "level of aspartate aminotransferase", "setting": "[5]; [9]", "result": "No significant changes"},
      {"measurement": "level of total bilirubin", "setting": "[5]; [9]", "result": "No significant changes"},
      {"measurement": "concentration up to which activation of FXR was not observed", "setting": "[6]", "result": "> 100", "unit": "µM"}
    ]}
  ]
}
